{
  "source": "patent US9610322B2",
  "about": "“Macrocyclic insulin-degrading enzyme (IDE) inhibitors and uses thereof” (President and Fellows of Harvard College, priority 2011, dated 2017)",
  "key": {"recombinant human IDE": {"target": "recombinant human IDE (Homo sapiens (Human), UniProt P14735)", "sequence (P14735 whole entry)": "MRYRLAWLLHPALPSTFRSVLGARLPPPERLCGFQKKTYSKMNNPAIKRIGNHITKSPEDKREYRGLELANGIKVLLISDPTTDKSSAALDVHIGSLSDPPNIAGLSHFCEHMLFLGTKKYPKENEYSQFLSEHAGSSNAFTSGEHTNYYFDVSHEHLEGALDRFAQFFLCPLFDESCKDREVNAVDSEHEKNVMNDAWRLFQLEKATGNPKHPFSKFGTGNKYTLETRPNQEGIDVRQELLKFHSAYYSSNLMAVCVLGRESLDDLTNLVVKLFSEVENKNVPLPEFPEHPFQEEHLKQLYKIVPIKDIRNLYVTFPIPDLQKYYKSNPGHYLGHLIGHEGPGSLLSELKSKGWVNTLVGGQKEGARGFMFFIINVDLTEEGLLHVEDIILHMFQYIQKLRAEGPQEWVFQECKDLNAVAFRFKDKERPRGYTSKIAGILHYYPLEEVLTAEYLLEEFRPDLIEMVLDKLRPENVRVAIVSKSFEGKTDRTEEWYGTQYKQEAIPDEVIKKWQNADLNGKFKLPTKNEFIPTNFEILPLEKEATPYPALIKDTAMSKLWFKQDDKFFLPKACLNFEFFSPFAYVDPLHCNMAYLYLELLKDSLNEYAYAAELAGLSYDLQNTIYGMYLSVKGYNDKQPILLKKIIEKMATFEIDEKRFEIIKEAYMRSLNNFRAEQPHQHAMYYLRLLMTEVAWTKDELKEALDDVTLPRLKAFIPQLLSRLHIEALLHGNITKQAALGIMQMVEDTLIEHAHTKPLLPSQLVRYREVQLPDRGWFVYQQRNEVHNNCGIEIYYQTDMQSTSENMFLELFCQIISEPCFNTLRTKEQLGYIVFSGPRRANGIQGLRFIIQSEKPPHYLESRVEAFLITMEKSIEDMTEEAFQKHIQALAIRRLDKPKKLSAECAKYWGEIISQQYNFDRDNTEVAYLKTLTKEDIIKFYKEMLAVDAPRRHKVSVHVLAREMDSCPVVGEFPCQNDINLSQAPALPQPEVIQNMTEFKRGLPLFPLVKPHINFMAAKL", "assay": "IDE protease assay, cleavage of fluorophore-quencher substrate peptide", "format": "biochemical", "conditions": "for stronger potency of trans-olefin isomer than corresponding cis-olefin isomer: trans vs cis olefin", "method": "In vitro protease assays: Protease assays with IDE and neprilysin were performed using Mca-RPPGFSAFK(Dnp)-OH substrate peptide (R&D Systems, SEQ ID NO: 6) and purified recombinant human IDE and recombinant human neprilysin (R&D Systems) according to the manufacturer's instructions. For IDE, 2 μL of small molecule dissolved in DMSO was combined with 48 μL, 0.2 μg/mL IDE in IDE assay buffer (50 mM Tris, 1 M NaCl, pH 7.5). 50 μL, of 20 μM substrate peptide in IDE assay buffer was then added to initiate the reaction, and peptide cleavage was monitored on a fluorescent plate reader (excitation=320 nm; emission=405 nm) for 5 minutes. The above protocol was also used for assaying neprilysin activity, substituting the neprilysin assay buffer (50 mM Tris, 0.05% Brij-35, pH 9.0).\nCompounds were synthesized as described previously;^9 in most cases the macrocycle synthesis yielded two isomers corresponding to the cis and trans olefins generated after macrocyclization. Macrocycles were assayed for IDE inhibition by monitoring cleavage of a substrate peptide^13 containing a fluorophore-quencher pair such that cleavage of the model substrate results in increased fluorescence."}, "plasma IDE activity": {"test_system": "plasma IDE activity", "assay": "Plasma IDE activity in mice injected with inhibitor", "format": "in vivo", "method": "Finally, we compared plasma IDE activity in mice injected with 6b with plasma IDE activity in control mice injected with vehicle alone (18:1:1, saline:DMSO:Tween-80). Plasma IDE activity 60 min after 10 mg/kg, 20 mg/kg, or 40 mg/kg i.p. injection of 6b was inhibited by ≧90% (FIG. 9)."}, "[1]": {"assay": "Preliminary pharmacokinetics after i.p. injection, LC-MS quantitation", "conditions": "mice"}, "[2]": {"assay": "Biodistribution assay after IP injection, LC-MS of organ extracts", "format": "in vivo, mouse", "conditions": "mice, intraperitoneal injection, 45 minutes", "method": "Macrocycles were diluted to 0.1 mg/mL or 1 mg/mL in PBS and IP-injected into a mouse to produce a concentration of 1 mg/kg or 10 mg/kg, respectively. After 45 minutes, organs were harvested, and the small-molecule fractions were extracted into a 2:1:1 mixture of chloroform:methanol:water. Samples were evaporated under a stream of nitrogen, resuspended in 100 μL of chloroform and subjected to LC-MS analysis.\nThe tissue distribution of enriched macrocycles after i.p. injection was examined. […] Briefly, compounds were injected at different concentrations intraperitoneally into mice, and plasma, brain, and pancreas were harvested after 45 minutes. Vehicle-only injections were performed as negative controls. We determined the relative amount of macrocycle present by extracting the organs with organic solvents and quantifying the amount of compound present by LC-MS analysis."}, "[3]": {"conditions": "previous indications; cited from earlier work"}},
  "data": [
    {"compound": "NC(=O)C1CCCCNC(=O)C(Cc2ccc(C(=O)c3ccccc3)cc2)NC(=O)C(CC2CCCCC2)NC(=O)CC(O)C(CC2CCCCC2)NC(=O)C=CC(=O)N1", "note": "(mixture of isomers) [Compound 3]", "values": [
      {"measurement": "stronger potency of trans-olefin isomer than corresponding cis-olefin isomer", "setting": "recombinant human IDE", "value": "> 10", "unit": "fold"}
    ]},
    {"compound": "NC(=O)C1CCCCNC(=O)C(Cc2ccc(C(=O)c3ccccc3)cc2)NC(=O)C(CC2CCCCC2)NC(=O)C(CC2CC2)NC(=O)C=CC(=O)N1", "note": "(mixture of isomers) [Compound 5]", "values": [
      {"measurement": "stronger potency of trans-olefin isomer than corresponding cis-olefin isomer", "setting": "recombinant human IDE", "value": "> 10", "unit": "fold"}
    ]},
    {"compound": "NC(=O)CCC1NC(=O)C=CC(=O)NC(C(N)=O)CCCCNC(=O)C(Cc2ccc(C(=O)c3ccccc3)cc2)NC(=O)C(CC2CCCCC2)NC1=O", "note": "(mixture of isomers) [Compound 6]", "values": [
      {"measurement": "stronger potency of trans-olefin isomer than corresponding cis-olefin isomer", "setting": "recombinant human IDE", "value": "> 10", "unit": "fold"}
    ]},
    {"compound": "NC(=O)CCC1NC(=O)C=CC(=O)NC(C(N)=O)CCCCNC(=O)CNC(=O)C(CC2CCCCC2)NC1=O", "note": "(stereo not shown) [Compound 1]", "values": [
      {"measurement": "activity against IDE in words", "setting": "recombinant human IDE", "value": "inactive"}
    ]},
    {"compound": "NC(=O)CCC1NC(=O)C=CC(=O)NC(C(N)=O)CCCCNC(=O)C(Cc2ccc(C(=O)c3ccccc3)cc2)NC(=O)C(CC2CCCCC2)NC1=O", "note": "(stereo not shown) [Compound 6b]", "values": [
      {"measurement": "inhibition of plasma IDE activity", "setting": "plasma IDE activity; 60 min after 10 mg/kg i.p.", "value": "≥ 90", "unit": "%"},
      {"measurement": "inhibition of plasma IDE activity", "setting": "plasma IDE activity; 60 min after 20 mg/kg i.p.", "value": "≥ 90", "unit": "%"},
      {"measurement": "inhibition of plasma IDE activity", "setting": "plasma IDE activity; 60 min after 40 mg/kg i.p.", "value": "≥ 90", "unit": "%"},
      {"measurement": "peak blood concentration", "setting": "[1]; i.p. 20 mg/kg", "value": 0.2, "unit": "µM"},
      {"measurement": "time of peak blood concentration", "setting": "[1]; i.p. 20 mg/kg", "value": 60, "unit": "min"},
      {"measurement": "tolerability of injections", "setting": "[1]; i.p. 20 mg/kg in 18:1:1 saline:DMSO:Tween-80", "value": "well tolerated"},
      {"measurement": "detection in brain", "setting": "[2]", "value": "none of the three compounds could be detected in the brain"},
      {"measurement": "detection in pancreas", "setting": "[2]", "value": "could be detected"},
      {"measurement": "detection in plasma", "setting": "[2]", "value": "could be detected"},
      {"measurement": "macrocycle concentrations in the plasma compared among compounds", "setting": "[2]", "value": "comparable"}
    ]},
    {"compound": "NCCCC[C@@H]1NC(=O)/C=C/C(=O)NC(C(N)=O)CCCCNC(=O)[C@@H](Cc2ccc(C(=O)c3ccccc3)cc2)NC(=O)[C@H](CC2CCCCC2)NC1=O", "note": "(stereo partly shown) [Compound 20]", "values": [
      {"measurement": "effect of modification on IDE inhibitor potency relative to 6b, in words", "setting": "recombinant human IDE; derivatives of 6b", "value": "equipotent"}
    ]},
    {"compound": "N=C(N)NCCC[C@H](NC(=O)[C@@H](CC(=O)NO)Cc1ccc2ccccc2c1)C(=O)N[C@@H](Cc1c[nH]c2ccccc12)C(=O)N[C@@H](CCC(=O)O)C(N)=O", "note": "[Ii1]", "values": [
      {"measurement": "stability under physiological conditions", "setting": "[3]", "value": "not sufficiently stable under physiological conditions"}
    ]}
  ]
}
